Results from ChEMBL document CHEMBL1671685, “Complete nucleotide sequence and comparative analysis of pPR9, a 41.7-kilobase conjugative staphylococcal multiresistance plasmid conferring high-level mupirocin resistance” (2010).

Tested on: Staphylococcus aureus
Test: Antibacterial activity against methicillin-resistant Staphylococcus aureus harboring 41.7-kilobase conjugative staphylococcal multiresistance plasmid pPR9 conferring high-level mupirocin resistance
Type: functional

With C/C(=C\C(=O)OCCCCCCCCC(=O)O)C[C@@H]1OC[C@H](C[C@@H]2O[C@H]2[C@@H](C)[C@H](C)O)[C@@H](O)[C@H]1O [MUPIROCIN] the MIC was at least 1020 µg/mL.
